Data on 1 compound can be found in paper PMC5447088, “The Hybrid Strategy of Thermoactinospora rubra YIM 77501^T for Utilizing Cellulose as a Carbon Source at Different Temperatures” (Frontiers in Microbiology, 2017).

What all share (experiment): p-nitrophenol release, absorbance at […] nm
What all share (format): biochemical, Thermoactinospora rubra

The subject of one assay is TrBG2. The settings on record: optimal temperature 60 °C; optimal pH; pNPGlu assumed as the substrate of Table S5.
The subject of the next assay is TrBG1. As to conditions: optimal temperature 40 °C; optimal pH; pNPGlu assumed as the substrate of Table S5.
The next assay concerns TrBG3. The settings on record: optimal temperature 50 °C; optimal pH; pNPGlu assumed as the substrate of Table S5.
The test system of the next assay is TrBG5. As to conditions: optimal temperature 50-60 °C; optimal pH; pNPGlu assumed as the substrate of Table S5.

Structures are written as SMILES.

Turning to `O=[N+]([O-])c1ccc(O[C@@H]2O[C@H](CO)[C@@H](O)[C@H](O)[C@H]2O)cc1` [p-nitrophenyl-β-D-glucopyranoside], the Km in the assay on TrBG2 was 0.31 mM; in the assay with TrBG1, 9.8 mM; in the assay with TrBG3, 5.9 mM; in the assay on TrBG5, 1.4 mM.
